Data as given in patent US20080187512A1, “Treatment for spinal muscular atrophy” (Academia Sinica, priority 2007, published 2008).

Key:
Assay type in all cases: cell-based, mouse
SMN2 [1] = experiment: SMN2 splicing pattern, semi-quantitative RT-PCR in SMA-like MEFs; parameters: key to SMN2 splicing pattern MEF: −: no effect; +: effective; +++: most effective; details: SMA-like MEFs; for SMN2 splicing pattern MEF: TSA 10 nM, sodium butyrate 25 mM, aclarubicin 80 nM, sodium vanadate 50 μM; for influence on SMN2 expression: time-course RT-PCR
Stat6 (pT641) = experiment: Signaling pathway screen in SMN2-NSC34 cells
Stat5 (pT694) = experiment: Signaling pathway screen in SMN2-NSC34 cells; parameters: Stat5 (pT694) cellular response: key: −: decreasing; +/−: no activation; +: slight activation; ++: minor activation; +++: significant activation; details: SMN2-NSC34 cells; for phosphorylation level of Stat5 increased compared to control cells: treatment for 4 hours, α-tubulin internal control
Description: (§1) Western blot analysis. Cells treated by dsRNA, compounds or Stat5A1*6 transfected were detached by scraping, pelletting and rinsing in PBS. Cell pellets were collected after centrifugation and lysed on ice in modified RIPA buffer (50 mM Tris-HCl (pH7.4), 1% NP-40, 0.25% deoxycholic acid, 0.15M NaCl, 1 mM EDTA, 1 mM PMSF/NaF/sodium orthovanadate, and protease inhibitors cocktail (Roche, Mannheim, Germany) for 30 min. After centrifugation, the supernatants were collected and kept frozen at −20° C. Protein concentrations were determined by Bio-Rad protein assay method. For Western blot analysis, protein samples were boiled for 5 min and electrophoresed on 8% or 10% SDS-polyacrylamide gel in a 1× running buffer (25 mM Tris, 192 mM glycine, 3.4 mM SDS, pH 8.3) and subsequently electrotransferred to Polyvinylidene Fluoride tansfer membrane (Pall, Pensacola, Fla.) using a TE 22 mini-tank transfer unit (Amersham Biosciences, San Francisco, Calif.) at 35 volts overnight in transfer buffer (25 mM Tris, 192 mM glycine, 20% methanol, pH8.3). The blotting membranes were incubated in blocking solution (PBS, 5% non-fat milk, 0.2% Tween-20) for 1 hour at room temperature, and then incubated in the same solution with the primary antibody (human-specific SMN/1:1000; SMN/1:5000, Transduction Laboratories, Lexington, Ky.; phospho-Stat5a/b/1:1000, Cell signaling, Beverly, Mass.; phospho-Jak2/1:1000, Upstate, Lake Placid, N.Y.; Flag BioM2/1:1000, Sigma, St. Louis, MO; c-myc/1:200, Santa Cruz Biotech, Santa Cruz, Calif.; α-Tubilin/1:10000, Upstate, Lake Placid, N.Y., MO), overnight at 4° C. The membranes were washed and incubated in the blocking solution with the proper HRP-conjugated secondary antibody at 1/5000 dilution (Chemicon, Temecula, Calif.) for 1 hour at room temperature. After washing three times in PBS containing 0.1% Tween-20, the signals were visualized by autoradiography (Fuji Medical X-ray film, Fuji Photos, Tokyo) using enhanced chemi-luminescence (ECL detection system; Perkin-Elmer, Boston, Calif.). Western blot quantification was performed by scanning the auto-radiographs with a computerized densitometer. Signal intensities were determined by densitometry analysis (Fuji film LAS-1000 plus pictography) using the program Phoreticx 1D (Phoreticx International).
(§2) Therefore, TSA, aclarubicin and sodium vanadate all induce the activation of Stat5A in motor neuron-like NSC34 cells.

Jak2 (pY1007/pY1008) = experiment: Signaling pathway screen in SMN2-NSC34 cells; details: for Jak2 activation: 2-4 hours after treatment; for Jak2 (pY1007/pY1008) cellular response: SMN2-NSC34 cells; on Jak2 (pY1007/pY1008) cellular response: key: −: decreasing; +/−: no activation; +: slight activation; ++: minor activation; +++: significant activation
Description: as §1, §2

Stat3 (pY705) = experiment: Signaling pathway screen in SMN2-NSC34 cells
Stat2 (pY705) = experiment: Signaling pathway screen in SMN2-NSC34 cells
P38 (pT180/pY182) = experiment: Signaling pathway screen in SMN2-NSC34 cells
JNK (pT183/pY185) = experiment: Signaling pathway screen in SMN2-NSC34 cells
Stat1 (pY701) = experiment: Signaling pathway screen in SMN2-NSC34 cells
ERK1/2 (pT202/pY204) = experiment: Signaling pathway screen in SMN2-NSC34 cells
SMN2 [2] = experiment: SMN2 splicing pattern, semi-quantitative RT-PCR in SMN2-NSC34 cells; parameters: key to SMN2 splicing pattern SMN2-NSC34: −: no effect; +: effective; +++: most effective; details: SMN2-NSC34 cells; TSA 10 nM, sodium butyrate 25 mM, aclarubicin 80 nM, sodium vanadate 100 μM
Description: Cell culture and chemical/dsRNA treatment. Mouse embryonic fibroblasts (MEFs) were prepared using the standard protocol. Briefly, E13.5 day embryo was isolated; the uterine deciduas were cut away, and the yolk sac was removed. The embryo was then scraped out to remove non-fibroblastic tissue, and the head severed for genotyping. Embryo body was minced in 0.25% Trypsin-EDTA and incubated for 30 min. It was then added to MEF culture media, and the cell suspension spun for ˜5 min at 1,000 rpm in the tissue culture centrifuge to pellet cells. The supernatant was aspirated off and the cell pellet immediately resuspended in 10 mL of fresh MEF culture media. The MEFs were allowed to reach confluency so the cells could be passaged for further experiments. Cultured MEFs and SMN2-NSC34 cells were maintained in Dulbecco's modified Eagle medium (Invitrogen, Carlsbad, Calif.) containing 10% heat-inactivated fetal bovine serum (Hyclone, Logan, Utah) and 1% penicillin-streptomycin (Invitrogen, Carlsbad, Calif.) and were incubated at 37° C. in a 5% CO2 humidified atmosphere. The cells were plated the day preceding treatment with each chemical and harvested at the indicated time.
Semi-quantitative PCR/RT-PCR. The genomic DNA from E13.5 SMA embryos was extracted. A specific primer pair, SMN forward 5′-[…]-3′ (SEQ ID NO:21) and SMN backward 5′-[…]-3′ (SEQ ID NO:22), was designed for recognition of both murine Smn and human SMN2. The PCR program initially started with a 95° C. denaturation for 10 min, followed by 19 to 26 cycles of 95° C./1 min. 53° C./1.5 min, 72° C./2 min to assay the linear range for both Smn and SMN2. For RT-PCR assay, total RNA was extracted at indicated time points from SMN2-NSC34 cells with sodium vanadate, TSA, and aclarubicin treatment or with an increasing amount of Stat5A1*6 transfection by using the TRizol reagent (Invitrogen, Carlsbad, Calif.). To amplify the exon7 inclusion/exclusion form of SMN2 transcripts, RT-PCR were performed using a primer set P5P6 as previously described (15). The transcript from the mouse glyceraldehyde-3-phosphate dehydrogenase (Gapdh) gene or the β-Actin gene was amplified using the primer pairs: Gapdh forward: 5′-[…]-3′ (SEQ ID NO:23), and backward: 5′-[…]-3′ (SEQ ID NO:24) (56° C.), and β-Actin forward: 5′-[…]-3′ (SEQ ID NO:25), and backward 5′-[…]-3′ (SEQ ID NO:26) (59° C.), and this allowed control of equal amounts of template. […] The gel images were digitally captured with a CCD camera and analyzed with the Alphalmager™. […] Relative total SMN2 transcript levels were determined from Stat5A1*6 transfected SMN2-NSC34 cells in a minimum of three independent experiments. Differences in ratios were determined to be significant by an independent two-tailed t-test, with *, P<0.05, **, P<0.005, ***, p<0.001.

In the case of `CCCCCCCCCCCCCC(=O)O[C@@H]1[C@@H](C)[C@@]2(O)[C@@H](C=C(CO)C[C@]3(O)C(=O)C(C)=C[C@@H]23)[C@@H]2C(C)(C)[C@]12OC(C)=O` [Phorbol-12-myristate-13-acetate], the “SMN2 splicing pattern MEF” value (SMN2 [1]) is reported as “−”.

With `CC(/C=C/C(=O)NO)=C\[C@@H](C)C(=O)c1ccc(N(C)C)cc1` [Trichostatin A (TSA), Trichostatin A] the “Stat6 (pT641) cellular response” value (Stat6 (pT641); 4 hrs) was “+/−”, the “Stat6 (pT641) cellular response” value (Stat6 (pT641); 8 hrs) was “−” and the “Stat5 (pT694) cellular response” value (Stat5 (pT694); 4 hrs) was “++”. For the same compound, the “Stat5 phosphorylation status at 8 hours” value (Stat5 (pT694)) was “remained activated”, the “Stat5 (pT694) cellular response” value (Stat5 (pT694); 8 hrs) was “+++” and the “phosphorylation level of Stat5 increased compared to control cells” value (Stat5 (pT694)) was “about 2 fold”. For the same compound, the Jak2 activation (Jak2 (pY1007/pY1008)) was “found activated”, the “Jak2 (pY1007/pY1008) cellular response” value (Jak2 (pY1007/pY1008); 4 hrs) was “+” and the “Jak2 (pY1007/pY1008) cellular response” value (Jak2 (pY1007/pY1008); 8 hrs) was “+/−”. For the same compound, the “Stat3 (pY705) cellular response” value (Stat3 (pY705); 4 hrs) was “+”, the “Stat3 (pY705) cellular response” value (Stat3 (pY705); 8 hrs) was “++” and the “Stat2 (pY705) cellular response” value (Stat2 (pY705); 4 hrs) was “+/−”. For the same compound, the “Stat2 (pY705) cellular response” value (Stat2 (pY705); 8 hrs) was “+/−”, the “P38 (pT180/pY182) cellular response” value (P38 (pT180/pY182); 4 hrs) was “+/−” and the “P38 (pT180/pY182) cellular response” value (P38 (pT180/pY182); 8 hrs) was “+”. The “JNK (pT183/pY185) cellular response” value (JNK (pT183/pY185); 4 hrs) was “+/−”, the “JNK (pT183/pY185) cellular response” value (JNK (pT183/pY185); 8 hrs) was “+” and the “SMN2 splicing pattern MEF” value (SMN2 [1]) was “+”. For the same compound, the “influence on SMN2 expression” value (SMN2 [1]) was “found to influence SMN2 expression”, the “Stat1 (pY701) cellular response” value (Stat1 (pY701); 4 hrs) was “−” and the “Stat1 (pY701) cellular response” value (Stat1 (pY701); 8 hrs) was “−”. The “ERK1/2 (pT202/pY204) cellular response” value (ERK1/2 (pT202/pY204); 4 hrs) was “+” and the “ERK1/2 (pT202/pY204) cellular response” value (ERK1/2 (pT202/pY204); 8 hrs) was “+”.

In the case of `CC(=O)N[C@@H](CS)C(=O)O` [N-Acetyl-L-cysteine], the “SMN2 splicing pattern MEF” value (SMN2 [1]) is reported as “−”.

With `NC(=O)NO` [Hydroxyurea] the “SMN2 splicing pattern MEF” value (SMN2 [1]) was “−”.

For `CC1=C(/C=C/C(C)=C/C=C/C(C)=C/C(=O)O)C(C)(C)CCC1` [All-trans retinoic acid], the “SMN2 splicing pattern MEF” value (SMN2 [1]) was “−”.

`CCCC(=O)[O-].[Na+]` [Sodium butyrate] was tested, and the “SMN2 splicing pattern MEF” value (SMN2 [1]) was “+” and the “SMN2 splicing pattern SMN2-NSC34” value (SMN2 [2]) was “+”.

For `CC[C@@]1(O)C[C@H](O[C@H]2C[C@H](N(C)C)[C@H](O[C@H]3C[C@H](O)[C@H](O[C@H]4CCC(=O)[C@H](C)O4)[C@H](C)O3)[C@H](C)O2)c2c(cc3c(c2O)C(=O)c2c(O)cccc2C3=O)[C@H]1C(=O)OC` [Aclarubicin], the “Stat6 (pT641) cellular response” value (Stat6 (pT641); 4 hrs) was “+/−”, the “Stat6 (pT641) cellular response” value (Stat6 (pT641); 8 hrs) was “−” and the “Stat5 (pT694) cellular response” value (Stat5 (pT694); 4 hrs) was “++”. The “Stat5 phosphorylation status at 8 hours” value (Stat5 (pT694)) was “remained activated”, the “Stat5 (pT694) cellular response” value (Stat5 (pT694); 8 hrs) was “+++” and the “phosphorylation level of Stat5 increased compared to control cells” value (Stat5 (pT694)) was “about 2 fold”. The Jak2 activation (Jak2 (pY1007/pY1008)) was “found activated”, the “Jak2 (pY1007/pY1008) cellular response” value (Jak2 (pY1007/pY1008); 4 hrs) was “+” and the “Jak2 (pY1007/pY1008) cellular response” value (Jak2 (pY1007/pY1008); 8 hrs) was “+/−”. For the same compound, the “Stat3 (pY705) cellular response” value (Stat3 (pY705); 4 hrs) was “+”, the “Stat3 (pY705) cellular response” value (Stat3 (pY705); 8 hrs) was “++” and the “Stat2 (pY705) cellular response” value (Stat2 (pY705); 4 hrs) was “+”. The “Stat2 (pY705) cellular response” value (Stat2 (pY705); 8 hrs) was “+/−”, the “P38 (pT180/pY182) cellular response” value (P38 (pT180/pY182); 4 hrs) was “+/−” and the “P38 (pT180/pY182) cellular response” value (P38 (pT180/pY182); 8 hrs) was “+/−”. For the same compound, the “SMN2 splicing pattern MEF” value (SMN2 [1]) was “+”, the “influence on SMN2 expression” value (SMN2 [1]) was “found to influence SMN2 expression” and the “Stat1 (pY701) cellular response” value (Stat1 (pY701); 4 hrs) was “+/−”. For the same compound, the “Stat1 (pY701) cellular response” value (Stat1 (pY701); 8 hrs) was “+/−”, the “ERK1/2 (pT202/pY204) cellular response” value (ERK1/2 (pT202/pY204); 4 hrs) was “+/−” and the “ERK1/2 (pT202/pY204) cellular response” value (ERK1/2 (pT202/pY204); 8 hrs) was “+/−”.
